The IC50 is the concentration needed to halve the response being measured. One may read the Ki as the dissociation constant of the complex between target and ligand, obtained from inhibition or displacement. A lower Ki goes with tighter binding.

In ChEMBL document CHEMBL1135085, “Potent P1' biphenylmethyl substituted aggrecanase inhibitors” (Bioorg Med Chem Lett, 2002) one finds IC50 and Ki data, which are given here for 14 compounds.

The nature of assay [1]: Inhibitory activity against aggrecanase was determined.
The next assay addresses T1, Interstitial collagenase (Homo sapiens, UniProt P03956).
T1 sequence (P03956 whole entry): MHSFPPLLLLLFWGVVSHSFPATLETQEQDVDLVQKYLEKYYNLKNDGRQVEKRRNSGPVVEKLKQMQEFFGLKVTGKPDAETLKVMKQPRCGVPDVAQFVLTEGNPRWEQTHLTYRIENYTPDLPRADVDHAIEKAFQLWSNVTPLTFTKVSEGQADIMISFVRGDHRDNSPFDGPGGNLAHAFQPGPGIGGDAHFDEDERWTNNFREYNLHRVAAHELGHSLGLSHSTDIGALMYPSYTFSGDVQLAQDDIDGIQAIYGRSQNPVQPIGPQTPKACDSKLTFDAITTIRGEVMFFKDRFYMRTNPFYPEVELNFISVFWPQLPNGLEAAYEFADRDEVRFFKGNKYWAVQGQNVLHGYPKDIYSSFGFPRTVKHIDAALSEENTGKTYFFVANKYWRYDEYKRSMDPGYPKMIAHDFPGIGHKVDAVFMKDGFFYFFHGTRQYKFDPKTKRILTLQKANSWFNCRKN
Briefly: Binding affinity for interstitial collagenase (MMP-1).

The target of assay [2] is 72 kDa type IV collagenase (Homo sapiens, UniProt P08253). Briefly: Binding affinity for human gelatinase A (MMP-2).
Chain of 72 kDa type IV collagenase (P08253 whole entry): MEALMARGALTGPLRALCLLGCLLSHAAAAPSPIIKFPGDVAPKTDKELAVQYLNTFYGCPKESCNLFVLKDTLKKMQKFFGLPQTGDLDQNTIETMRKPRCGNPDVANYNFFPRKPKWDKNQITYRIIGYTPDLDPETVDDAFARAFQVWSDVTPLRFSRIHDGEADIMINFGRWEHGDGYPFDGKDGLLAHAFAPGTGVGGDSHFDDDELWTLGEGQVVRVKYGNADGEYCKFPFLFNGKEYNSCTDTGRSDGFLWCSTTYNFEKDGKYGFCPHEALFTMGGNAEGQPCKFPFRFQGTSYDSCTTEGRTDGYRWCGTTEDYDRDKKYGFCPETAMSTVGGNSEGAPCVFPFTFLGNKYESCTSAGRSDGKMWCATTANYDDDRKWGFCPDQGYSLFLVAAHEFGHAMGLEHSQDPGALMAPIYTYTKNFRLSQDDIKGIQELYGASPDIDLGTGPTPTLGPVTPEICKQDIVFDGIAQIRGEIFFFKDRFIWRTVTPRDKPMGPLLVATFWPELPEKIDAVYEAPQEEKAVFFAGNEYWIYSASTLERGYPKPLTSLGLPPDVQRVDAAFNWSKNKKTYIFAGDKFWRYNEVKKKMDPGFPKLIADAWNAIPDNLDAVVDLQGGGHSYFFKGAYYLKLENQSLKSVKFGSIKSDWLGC
Assay [3] deals with Matrix metalloproteinase-9 (Homo sapiens, UniProt P14780). Briefly: Binding affinity for human gelatinase B (MMP-9).
Chain of Matrix metalloproteinase-9 (P14780 whole entry): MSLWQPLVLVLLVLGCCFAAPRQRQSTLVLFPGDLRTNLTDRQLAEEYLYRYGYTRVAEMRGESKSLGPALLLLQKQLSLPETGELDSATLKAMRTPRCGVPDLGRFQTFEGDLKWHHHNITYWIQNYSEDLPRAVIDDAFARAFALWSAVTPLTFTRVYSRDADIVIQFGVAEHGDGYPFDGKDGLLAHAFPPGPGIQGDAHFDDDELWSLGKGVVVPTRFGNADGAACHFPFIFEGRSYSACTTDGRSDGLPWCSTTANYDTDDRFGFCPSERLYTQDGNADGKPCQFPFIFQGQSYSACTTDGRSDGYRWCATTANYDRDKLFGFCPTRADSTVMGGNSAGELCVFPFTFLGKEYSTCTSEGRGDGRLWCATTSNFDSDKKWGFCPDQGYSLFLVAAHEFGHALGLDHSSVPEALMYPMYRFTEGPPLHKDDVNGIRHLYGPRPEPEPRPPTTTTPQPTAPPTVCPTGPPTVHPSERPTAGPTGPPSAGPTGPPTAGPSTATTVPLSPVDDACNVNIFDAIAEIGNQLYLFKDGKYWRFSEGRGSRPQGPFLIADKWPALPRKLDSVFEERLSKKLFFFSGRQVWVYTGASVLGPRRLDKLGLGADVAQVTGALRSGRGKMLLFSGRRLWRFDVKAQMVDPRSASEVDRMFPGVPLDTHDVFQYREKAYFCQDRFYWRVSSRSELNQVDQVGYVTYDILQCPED

`O=C(C[C@@H](Cc1ccc(-c2ccccc2Cl)cc1)C(=O)N[C@H]1c2ccccc2C[C@H]1O)NO`: in assay [1], the midpoint of inhibition, the IC50, lay at 32 nM. In addition, the Ki is above 5000 nM on Interstitial collagenase, 27 nM in assay [2] and 150 nM in assay [3].

Compound `O=C(C[C@@H](Cc1ccc(-c2cccc([N+](=O)[O-])c2)cc1)C(=O)N[C@H]1c2ccccc2C[C@H]1O)NO` showed an IC50 in assay [1] of 5.5 nM.

For the compound `Cc1ccccc1-c1ccc(C[C@H](CC(=O)NO)C(=O)N[C@H]2c3ccccc3C[C@H]2O)cc1`, the half-inhibitory concentration (IC50) in assay [1] turned out to be 11.6 nM. Also, the Ki on Interstitial collagenase is 4110 nM; in assay [2], below 2.8 nM; in assay [3], 4.2 nM.

Compound `COc1ccccc1-c1ccc(C[C@H](CC(=O)NO)C(=O)N[C@H]2c3ccccc3C[C@H]2O)cc1` displayed an IC50 in assay [1] of 3.4 nM.

In the case of `O=C(C[C@@H](Cc1ccc(-c2ccccc2-c2nn[nH]n2)cc1)C(=O)N[C@H]1c2ccccc2C[C@H]1O)NO`, the IC50 in assay [1] turned out to be 239 nM. For the same compound, the figures for the Ki (on Interstitial collagenase; in assay [2]; in assay [3]) were above 5000 nM, 1130 nM and 277 nM, respectively.

In assay [1], `O=C(C[C@@H](Cc1cccc(O)c1)C(=O)N[C@H]1c2ccccc2C[C@H]1O)NO` had an IC50 of 64 nM.

Consider `Cc1cccc(-c2ccc(C[C@H](CC(=O)NO)C(=O)N[C@H]3c4ccccc4C[C@H]3O)cc2)c1`, for which, in assay [1], inhibition was half-maximal at 11.5 nM (IC50). Also, the Ki is above 5000 nM at Interstitial collagenase, 39 nM in assay [2] and 1080 nM in assay [3].

Compound `O=C(C[C@@H](Cc1ccc(-c2cccc(F)c2)cc1)C(=O)N[C@H]1c2ccccc2C[C@H]1O)NO` gave an IC50 in assay [1] of 2 nM.

In assay [1], `O=C(C[C@@H](Cc1ccc(-c2ccccc2CO)cc1)C(=O)N[C@H]1c2ccccc2C[C@H]1O)NO` had an IC50 of 144 nM. In addition, the Ki was above 5000 nM on Interstitial collagenase, 500 nM in assay [2] and above 2000 nM in assay [3].

As to `O=C(C[C@@H](Cc1ccc(-c2ccccc2)cc1)C(=O)N[C@H]1c2ccccc2C[C@H]1O)NO`, the IC50 in assay [1] was 9.8 nM. The figures for the inhibition constant (Ki) (on Interstitial collagenase; in assay [2]; in assay [3]) were above 5000 nM, below 1 nM and 5.4 nM, respectively.

Take `CS(=O)(=O)Nc1cccc(-c2ccc(C[C@H](CC(=O)NO)C(=O)N[C@H]3c4ccccc4C[C@H]3O)cc2)c1`: in assay [1], half-maximal inhibition (IC50) was put at 1.5 nM.

The compound `COc1cccc(-c2ccc(C[C@H](CC(=O)NO)C(=O)N[C@H]3c4ccccc4C[C@H]3O)cc2)c1` yielded an IC50 in assay [1] of 3.7 nM. Besides, the results for the Ki (on Interstitial collagenase; in assay [2]; in assay [3]) were above 5000 nM, below 2.8 nM and 2.8 nM, respectively.

Regarding `O=C(C[C@@H](Cc1ccc(-c2ccc3c(c2)OCO3)cc1)C(=O)N[C@H]1c2ccccc2C[C@H]1O)NO`, the midpoint of inhibition in assay [1], the IC50, lay at 1.5 nM. Moreover, the Ki on Interstitial collagenase came to 12800 nM; in assay [2], 43 nM; in assay [3], 309 nM.

With `CC(C)c1cccc(-c2ccc(C[C@H](CC(=O)NO)C(=O)N[C@H]3c4ccccc4C[C@H]3O)cc2)c1`, the IC50 in assay [1] came to 216 nM.
